Test results taken from ChEMBL document CHEMBL4308841, “Synthesis, in vitro antiproliferative activity, and kinase inhibitory effects of pyrazole-containing diarylureas and diarylamides” (Eur J Med Chem, 2018).

Experiments:
MCF7 [1] = test: Growth inhibition of human MCF7 cells incubated for 48 hrs by sulforhodamine B assay; assay type: functional, cell-based; conditions: MCF7, 48 h
OVCAR-4 = test: Growth inhibition of human OVCAR4 cells assessed as cell growth at 0.01 uM incubated for 48 hrs by sulforhodamine B assay relative to control; assay type: functional; conditions: OVCAR-4, 48 h, read-out: Activity
M14 = test: Growth inhibition of human M14 cells assessed as cell growth at 0.01 uM incubated for 48 hrs by sulforhodamine B assay relative to control; assay type: functional; conditions: M14, 48 h, read-out: Activity
NCI-H23 = test: Growth inhibition of human NCI-H23 cells assessed as cell growth at 100 uM incubated for 48 hrs by sulforhodamine B assay relative to control; assay type: functional; conditions: NCI-H23, 48 h, read-out: Activity
786-0 = test: Growth inhibition of human 786-0 cells assessed as cell growth at 0.1 uM incubated for 48 hrs by sulforhodamine B assay relative to control; assay type: functional; conditions: 786-0, 48 h, read-out: Activity
HOP-62 = test: Growth inhibition of human HOP62 cells incubated for 48 hrs by sulforhodamine B assay; assay type: functional, cell-based; conditions: HOP-62, 48 h
NCI-H460 [2] = test: Growth inhibition of human NCI-H460 cells assessed as cell growth at 1 uM incubated for 48 hrs by sulforhodamine B assay relative to control; assay type: functional; conditions: NCI-H460, 48 h, read-out: Activity
CCRF-CEM = test: Growth inhibition of human CCRF-CEM cells incubated for 48 hrs by sulforhodamine B assay; assay type: functional, cell-based
A549 [3] = test: Growth inhibition of human A549/ATCC cells assessed as cell growth at 0.01 uM incubated for 48 hrs by sulforhodamine B assay relative to control; assay type: functional; conditions: A549, 48 h, read-out: Activity
MDA-MB-468 = test: Growth inhibition of human MDA-MB-468 cells incubated for 48 hrs by sulforhodamine B assay; assay type: functional, cell-based; conditions: MDA-MB-468, 48 h
SNB-75 = test: Growth inhibition of human SNB75 cells assessed as cell growth at 0.1 uM incubated for 48 hrs by sulforhodamine B assay relative to control; assay type: functional; conditions: SNB-75, 48 h, read-out: Activity
UACC-62 = test: Growth inhibition of human UACC62 cells assessed as cell growth at 0.1 uM incubated for 48 hrs by sulforhodamine B assay relative to control; assay type: functional; conditions: UACC-62, 48 h, read-out: Activity
NCI-H226 = test: Growth inhibition of human NCI-H226 cells assessed as cell growth at 0.01 uM incubated for 48 hrs by sulforhodamine B assay relative to control; assay type: functional; conditions: NCI-H226, 48 h, read-out: Activity
BT-549 = test: Growth inhibition of human BT549 cells assessed as cell growth at 1 uM incubated for 48 hrs by sulforhodamine B assay relative to control; assay type: functional; conditions: BT-549, 48 h, read-out: Activity
HCC 2998 = test: Growth inhibition of human HCC2998 cells assessed as cell growth at 1 uM incubated for 48 hrs by sulforhodamine B assay relative to control; assay type: functional; conditions: HCC 2998, 48 h, read-out: Activity
SK-MEL-5 = test: Growth inhibition of human SK-MEL-5 cells incubated for 48 hrs by sulforhodamine B assay; assay type: functional, cell-based; conditions: SK-MEL-5, 48 h
PC-3 [4] = test: Growth inhibition of human PC3 cells assessed as cell growth at 0.01 uM incubated for 48 hrs by sulforhodamine B assay relative to control; assay type: functional; conditions: PC-3, 48 h, read-out: Activity
Hs-578T = test: Growth inhibition of human Hs578T cells assessed as cell growth at 0.01 uM incubated for 48 hrs by sulforhodamine B assay relative to control; assay type: functional; conditions: read-out: Activity
A549 [5] = test: Growth inhibition of human A549/ATCC cells assessed as cell growth at 1 uM incubated for 48 hrs by sulforhodamine B assay relative to control; assay type: functional; conditions: A549, 48 h, read-out: Activity
PC-3 [6] = test: Growth inhibition of human PC3 cells assessed as cell growth at 0.1 uM incubated for 48 hrs by sulforhodamine B assay relative to control; assay type: functional; conditions: PC-3, 48 h, read-out: Activity
DU-145 = test: Growth inhibition of human DU145 cells assessed as cell growth at 0.01 uM incubated for 48 hrs by sulforhodamine B assay relative to control; assay type: functional; conditions: DU-145, 48 h, read-out: Activity
CAKI-1 = test: Growth inhibition of human Caki1 cells assessed as cell growth at 0.01 uM incubated for 48 hrs by sulforhodamine B assay relative to control; assay type: functional; conditions: CAKI-1, 48 h, read-out: Activity
HL-60(TB) = test: Growth inhibition of human HL-60(TB) cells assessed as cell growth at 1 uM incubated for 48 hrs by sulforhodamine B assay relative to control; assay type: functional; conditions: HL-60, 48 h, read-out: Activity
NCI-H460 [7] = test: Growth inhibition of human NCI-H460 cells incubated for 48 hrs by sulforhodamine B assay; assay type: functional, cell-based; conditions: NCI-H460, 48 h
MCF7 [8] = test: Growth inhibition of human MCF7 cells assessed as cell growth at 1 uM incubated for 48 hrs by sulforhodamine B assay relative to control; assay type: functional; conditions: MCF7, 48 h, read-out: Activity
ACHN [9] = test: Growth inhibition of human ACHN cells assessed as cell growth at 0.01 uM incubated for 48 hrs by sulforhodamine B assay relative to control; assay type: functional; conditions: read-out: Activity
UO-31 = test: Growth inhibition of human UO31 cells assessed as cell growth at 0.01 uM incubated for 48 hrs by sulforhodamine B assay relative to control; assay type: functional; conditions: UO-31, 48 h, read-out: Activity
HCT-15 = test: Growth inhibition of human HCT15 cells incubated for 48 hrs by sulforhodamine B assay; assay type: functional, cell-based; conditions: HCT-15, 48 h
ACHN [10] = test: Growth inhibition of human ACHN cells assessed as cell growth at 1 uM incubated for 48 hrs by sulforhodamine B assay relative to control; assay type: functional; conditions: read-out: Activity
[11] = read-out: LC50 (the source's name)
[12] = read-out: pLC50 (the source's name) (converted)

SMILES: COc1cc(Cl)cc(-c2nn(-c3cccc(NC(=O)Nc4ccc(Cl)c(Cl)c4)c3)cc2-c2ccncc2)c1
- GI50 (MCF7 [1]; read-out: GI50): 2.56 µM
- LC50 (MCF7 [1]; read-out: LC50): > 100 µM
- TGI (MCF7 [1]; read-out: TGI): 13.2 µM
- GI50 (MCF7 [1]; read-out: pGI50 (converted)): 2.57 µM
- LC50 (MCF7 [1]; read-out: pLC50 (converted)): > 100 µM
- TGI (MCF7 [1]; read-out: pTGI (converted)): 13.2 µM
- growth at 0.01 µM (OVCAR-4): 93%
- growth at 0.01 µM (M14): 97%
- growth at 100 µM (NCI-H23): -20%
- growth at 0.1 µM (786-0): 98%
- GI50 (HOP-62; read-out: GI50): 3.36 µM
- CC50 (HOP-62; [11]): > 100 µM
- TGI (HOP-62; read-out: TGI): 35.1 µM
- GI50 (HOP-62; read-out: pGI50 (converted)): 3.39 µM
- CC50 (HOP-62; [12]): > 100 µM
- TGI (HOP-62; read-out: pTGI (converted)): 35.5 µM
- growth at 1 µM (NCI-H460 [2]): 77%
- GI50 (CCRF-CEM; read-out: GI50): 2 µM
- CC50 (CCRF-CEM; [11]): > 100 µM
- TGI (CCRF-CEM; read-out: TGI): 50 µM
- GI50 (CCRF-CEM; read-out: pGI50 (converted)): 2 µM
- CC50 (CCRF-CEM; [12]): > 100 µM
- TGI (CCRF-CEM; read-out: pTGI (converted)): 6.03 µM
- growth at 0.01 µM (A549 [3]): 99%
- IC50 (MDA-MB-468): 1.74 µM
- GI50 (MDA-MB-468; read-out: GI50): 1.74 µM
- CC50 (MDA-MB-468; [11]): > 100 µM
- TGI (MDA-MB-468; read-out: TGI): 73.7 µM
- GI50 (MDA-MB-468; read-out: pGI50 (converted)): 1.74 µM
- CC50 (MDA-MB-468; [12]): > 100 µM
- TGI (MDA-MB-468; read-out: pTGI (converted)): 7.41 µM
- growth at 0.1 µM (SNB-75): 90%
- growth at 0.1 µM (UACC-62): 97%
- growth at 0.01 µM (NCI-H226): 96%
- growth at 1 µM (BT-549): 92%
- growth at 1 µM (HCC 2998): 91%
- GI50 (SK-MEL-5; read-out: GI50): 1.52 µM
- CC50 (SK-MEL-5; [11]): 6.23 µM
- TGI (SK-MEL-5; read-out: TGI): 31.7 µM
- GI50 (SK-MEL-5; read-out: pGI50 (converted)): 1.62 µM
- CC50 (SK-MEL-5; [12]): 6.17 µM
- TGI (SK-MEL-5; read-out: pTGI (converted)): 3.16 µM
- growth at 0.01 µM (PC-3 [4]): 96%
- growth at 0.01 µM (Hs-578T): 93%
- growth at 1 µM (A549 [5]): 82%
- growth at 0.1 µM (PC-3 [6]): 98%
- growth at 0.01 µM (DU-145): 101%
- growth at 0.01 µM (CAKI-1): 96%
- growth at 1 µM (HL-60(TB)): 91%
- GI50 (NCI-H460 [7]; read-out: GI50): 2.27 µM
- CC50 (NCI-H460 [7]; [11]): > 100 µM
- TGI (NCI-H460 [7]; read-out: TGI): 13.9 µM
- GI50 (NCI-H460 [7]; read-out: pGI50 (converted)): 2.29 µM
- CC50 (NCI-H460 [7]; [12]): > 100 µM
- TGI (NCI-H460 [7]; read-out: pTGI (converted)): 13.8 µM
- growth at 1 µM (MCF7 [8]): 83%
- growth at 0.01 µM (ACHN [9]): 102%
- growth at 0.01 µM (UO-31): 89%
- GI50 (HCT-15; read-out: GI50): 2.51 µM
- CC50 (HCT-15; [11]): > 100 µM
- TGI (HCT-15; read-out: TGI): 31.5 µM
- GI50 (HCT-15; read-out: pGI50 (converted)): 2.51 µM
- CC50 (HCT-15; [12]): > 100 µM
- TGI (HCT-15; read-out: pTGI (converted)): 31.6 µM
- growth at 1 µM (ACHN [10]): 91%
